# Assay results reported in patent publication US20230172958A1, “USE OF COMPOUNDS FOR TREATING VIRAL INFECTIONS” (priority 2020, published 2023).
# “Also recorded” adds a separate entry of the source. Where two headings read alike, the source gives them in different places.
# Assays:
# [1] = system: V-ATPase; assay: V-ATPase ELISA (Human V-Type Proton ATPase ELISA kit) on treated MDAMB231 cells; type: cell-based; conditions: 100 nM (0.1 μM)/10,000 cells, 48 hours
# Description: An ELISA test was performed using Human V-Type Proton ATPase ELISA kit (My BioSource Catlog no: MBS911862) to determine the V-ATPase inhibitory effect of the compounds of the present invention.
# Procedure: 1.0 million cells of MDAMB231 (cell line rich in V-ATPase) were plated on 60 mm plates for 24 hours at 37° C. and 5% CO2. The cells were treated with the test compounds (Formula A to U) at a concentration of 100 nM (0.1 μM)/10,000 cells and incubated for 48 hours. After incubation the supernatant was discarded, the cells were washed with D.P.B.S. (Dulbecco's phosphate-buffered saline), scraped and stored at −80° C. for 48 hours. The cells were thawed, vortexed, homogenized for 7 minutes, followed by centrifugation for 3 minutes at 3000 R.P.M. The supernatant was taken for V-ATPase Assay.
# Standards and samples were pipetted into the wells. Antibody specific for V-ATPase was pre-coated onto a microplate. Any V-ATPase present in the standard /sample would get bound by the immobilized antibody. After the incubation period any unbound substances were removed by washing and a biotin-conjugated antibody specific for V-ATPase was added to the wells and plates were re-incubated at 37° C. and 5% CO2. After washing, avidin conjugated Horseradish Peroxidase (HRP) was added to the wells. Following a wash to remove any unbound avidin-enzyme reagent, a substrate solution was added to the wells and colour developed was in proportion to the amount of V-ATPase bound in the initial step. The colour development was stopped, and the optical density was measured at 450 nm spectrophotometrically. The concentration of V-ATPase was then calculated by substituting the optical density in the regression equation obtained from the standards. Percent (%) reduction in V-ATPase was calculated by subtracting the amount of V-ATPase obtained from the untreated/conc. of V-ATPase in untreated X100.
# [2] = system: SARS-CoV-2; assay: Neutral Red reduction of virus-induced cytopathic effect (primary CPE assay) in Vero 76 cells; type: cell-based; conditions: Severe acute respiratory syndrome coronavirus 2, virus-inhibitory
# [3] = Neutral Red toxicity assay, uninfected cultures; type: cell-based; conditions: African green monkey, Vero 76 cells (uninfected monolayers), cell-inhibitory
# Description: Confluent or near-confluent cell culture monolayers of Vero 76 cells were prepared in 96-well disposable microplates the day before testing. Cells were maintained in MEM (Minimum Essential Medium Eagle) supplemented with 5% FBS (Fetal Bovine Serum). For antiviral assays the same medium was used but with FBS reduced to 2% and supplemented with 50-μg/ml gentamicin.
# Compounds were dissolved in DMSO, saline or the diluent. […] The test compound was prepared at four serial log10 concentrations, usually 0.1, 1.0, 10, and 100 μg/ml or μM. Lower concentrations were used when insufficient compound was supplied. Five microwells were used per dilution: three for infected cultures and two for uninfected toxicity cultures. Controls for the experiment consisted of six microwells that were infected and not treated (virus controls) and six that were untreated and uninfected (cell controls) on every plate. A known active drug was tested in parallel as a positive control drug using the same method as was applied for test compounds. The positive control was tested with every test run.
# Growth media was removed from the cells and the test compound was applied in 0.1 ml volume to wells at 2× concentration. Virus, normally at ˜60 CCID50 (50% cell culture infectious dose) in 0.1 ml volume is added to the wells designated for virus infection. Medium devoid of virus was placed in toxicity control wells and cell control wells. […] The plates were then stained with 0.011% neutral red for approximately two hours at 37° C. in a 5% CO2 incubator. The neutral red medium was removed by complete aspiration, and the cells may be rinsed 1× with phosphate buffered solution (PBS) to remove residual dye. The PBS was completely removed, and the incorporated neutral red was eluted with 50% Sorensen's citrate buffer/50% ethanol for at least 30 minutes. Neutral red dye penetrates into living cells, thus, the more intense the red color, the larger the number of viable cells present in the wells. The dye content in each well was quantified using a spectrophotometer at 540 nm wavelength. The dye content in each set of wells was converted to a percentage of dye present in untreated control wells using a Microsoft Excel computer-based spreadsheet and normalized based on the virus control. The 50% effective (EC50, virus-inhibitory) concentrations and 50% cytotoxic (CC50, cell-inhibitory) concentrations are then calculated by regression analysis. The quotient of CC50 divided by EC50 gives the selectivity index (SI) value.
# [4] = system: SARS-CoV-2; assay: Anti SARS-CoV-2 IC50 estimation by qRT-PCR in VeroE6 cells; type: cell-based; conditions: Severe acute respiratory syndrome coronavirus 2, Vero C1008
# [5] = system: SARS-CoV-2; assay: Antiviral screening by qRT-PCR in VeroE6 cells; type: cell-based; conditions: Severe acute respiratory syndrome coronavirus 2, Vero C1008, 10 μM
# [6] = system: SARS-CoV-2; type: in vivo, golden Syrian hamster
# [7] = Pre-clinical GLP and non-GLP toxicity and safety studies; type: in vivo
# Description: (§1) Various pre-clinical GLP (Good Laboratory Practice) and non-GLP studies were performed with the compound of Formula E. These included 7-day and 28- days studies on rats and dogs, acute toxicity in rats, mice and dogs. The effect of the compound of Formula E on respiratory function, nervous system and cardiovascular system, bacterial mutation, metabolism, CaCo2 permeability, protein binding and cytochrome effect was also studied.
# [8] = Bacterial mutation study
# Description: as §1
# [9] = physchem
compound,measurement,setting,value
"COC1COC(Oc2ccc(-c3ccc4c(c3)OCO4)c3ccccc23)C(O)C1OC (centres unmarked) [Compound of Formula E, 2-(1-(benzo[d][1,3]dioxol-5-yl)naphthalen-4-yloxy)-tetrahydro-4,5-dimethoxy-2H-pyran-3-ol]",reduction of V-ATPase (%),[1],15.6%
same,EC50,[2],0.35 µg/mL
same,CC50,[3],2.5 µg/mL
same,IC50,"[4]; VeroE6, MOI 0.01, 48 hours, qRT-PCR E gene, read-out: IC50 value (μM) E gene",0.571 µM
same,IC50,"[4]; VeroE6, MOI 0.01, 48 hours, qRT-PCR N gene, read-out: IC50 value (μM) N gene",0.586 µM
same,IC50,"[4]; conclusion statement, read-out: anti-SARS-CoV-2 activity IC50",< 10 µM
same,inhibition at 10 µM,"[5]; 24 hours post infection, E gene, read-out: % inhibition of virus replication 24 hours post infection E",75.4%
same,inhibition at 10 µM,"[5]; 24 hours post infection, N gene, read-out: % inhibition of virus replication 24 hours post infection N",81.3%
same,inhibition at 10 µM,"[5]; 48 hours post infection, E gene, read-out: % inhibition of virus replication 48 hours post infection E",99.5%
same,inhibition at 10 µM,"[5]; 48 hours post infection, N gene, read-out: % inhibition of virus replication 48 hours post infection N",99.7%
same,IL4 mRNA expression in splenocytes,[6]; across all the groups,dramatic inhibition
same,body mass loss post infection,"[6]; hamster, in vivo",did not lose weight post infection; also recorded: second best recovery; also recorded: marginal protection
same,"gross lung pneumonitis and inflammation, day 4 post challenge","[6]; hamster, in vivo",significantly lesser regions of pneumonitis and inflammation
same,histological parameters and overall disease score (H&E),"[6]; hamster, in vivo",best protection
same,histological protection (H&E),"[6]; hamster, in vivo","little, or no protection"
same,"pneumonitis, alveolar epithelial injury and lung inflammation score (H&E)","[6]; hamster, in vivo",good reduction
same,reduction in relative lung viral load (N2 gene),"[6]; hamster, in vivo",5 fold
same,splenomegaly,"[6]; hamster, in vivo",significant mitigation
same,spleen size,"[6]; other drug groups (δI/200, δII/800, δIV/400)",little or no reduction
same,overall protective efficacy against SARS-CoV-2 infection,"[6]; pre-treatment with 400 mpk, compared to Remdesivir",decreased lung viral load and pneumonitis compared to Remdesivir
same,IL17A mRNA expression in splenocytes,[6]; δI/200,inhibition
same,INFγ mRNA expression in splenocytes,[6]; δI/200,highest induction
same,IL17A mRNA expression in splenocytes,[6]; δIII/p400,inhibition
same,toxic or adverse effect at higher dose,"[7]; 2000 mg/kg in rats, mice and dogs",did not show any toxic or adverse effect
same,toxicity in pre-clinical studies,"[7]; 7-day and 28-days studies on rats and dogs, acute toxicity in rats, mice and dogs",non-toxic
same,clastogenicity,[7]; in vivo,non-clastogenic
same,"effect on the respiratory, nervous and cardiovascular system",[7]; in vivo,no effect
same,mutagenicity,[8],non-mutagenic
same,logP,[9],~4
